Series [1] has as its system human embryonic stem cell derived neural stem cells (NSCs). In words: Neural stem cell proliferation assay (neurogenesis assay, ATP levels by CellTiterGlo). Type of series: cell-based. The note with it: 96 h, compound concentration at which 150% activity of control (100%) is reached, ATP levels after 4 days incubation, dose response 8 μM to 8 nM. As to the method:
Neural Stem Cell Proliferation Assay
Neurogenic properties of small molecules are determined based on the proliferation of human embryonic stem cell derived neural stem cells (NSCs) which were derived via a dual smad inhibition as previously described (Chambers, S. M., et al., Highly efficient neural conversion of human ES and iPS cells by dual inhibition of SMAD signaling, Nature biotechnology, 2009. 27(3): p. 275-80.)
Compounds respond is measured by the increase in cells based on ATP levels (Promega:CellTiterGlo®) after an incubation period of 4 days.
NSCs are thawed and expanded over 3 passages. On the 14th day, NSCs are seeded in Polyornithin/Laminin coated 384 well plates at a cell density of 21′000 cells/cm^2 in a media volume of 38 μl.
4 hours after cell seeding, compound solutions are added at a volume of 2 μl. Stock solutions of the compounds (water, 5% DMSO) are diluted to obtain a dose response (11 points, dilution factor is 2), ranging from 8 μM to 8 nM. Controls are run to consistently determine the neurogenic properties of the cells: • Negative (neutral) control is cell culture Media (final DMSO concentration: 0.25%). Positive controls are: • 1. cell culture Media+100 ng/ml FGF2 (final DMSO concentration: 0.1%) • 2. cell culture Media+20 ng/ml EGF (final DMSO concentration: 0.1%) • 3. cell culture Media+100 ng/ml Wnt3a (final DMSO concentration: 0.1%)
After 4 days incubation at 37° C., 5% CO2, the amount of ATP per well is quantified. The ATP concentration is proportional to the cell number. ATP is quantified by using the Promega CellTiterGlo® kit. The CellTiterGlo® reagents contain a cell lysis buffer, a thermo stable luciferase (UltraGlo™ recombinant luciferase), magnesium and luciferin. Luciferin reacts with ATP producing oxyluciferin, AMP and light. The luminescence signal is proportional to the ATP content.
The value of negative (neutral) control is determined for each assay plate by taking the average of 16 negative control wells. The neurogenic compound response is calculated for each compound as (compound/Negative Control)* 100.
The values of EC150 from the dose response curve are determined for each test compound. The EC150 is the compound concentration at which 150% activity of control (100%) is reached.

Take `Cc1ccc(-n2nccc2-c2ccc3noc(-c4ccc(C(F)(F)F)cc4)c3c2)cc1` [Example 17, 5-(2-p-Tolyl-2H-pyrazol-3-yl)-3-(4-trifluoromethyl-phenyl)-benzo[c]isoxazole]: the melting point stood at 173 °C. The EC (150% of control) in series [1] came to 1.13 µM.

In turn, `Fc1ccc(-c2onc3ccc(-c4ccnn4-c4ccccc4Cl)cc23)cc1` [Example 41, 5-[2-(2-Chloro-phenyl)-2H-pyrazol-3-yl]-3-(4-fluoro-phenyl)-benzo[c]isoxazole] had a melting point of 161 °C. The same compound had an EC (150% of control) in series [1] of 0.22 µM.

`Cc1ccc(-n2nccc2-c2ccc3noc(-c4cccc(F)c4)c3c2)cc1` [Example 15, 3-(3-Fluoro-phenyl)-5-(2-p-tolyl-2H-pyrazol-3-yl)-benzo[c]isoxazole] came in with a melting point of 207 °C. In addition, the EC (150% of control) in series [1] stood at 0.14 µM.

In turn, `Cc1ccc(-n2nccc2-c2ccc3noc(-c4ccc(Cl)cc4)c3c2)cc1` [Example 18, 3-(4-Chloro-phenyl)-5-(2-p-tolyl-2H-pyrazol-3-yl)-benzo[c]isoxazole] displayed a melting point of 204 °C. Further, the EC (150% of control) in series [1] stood at 0.093 µM.

On to `Fc1ccc(-c2onc3ccc(-c4ccnn4-c4cccc(F)c4)cc23)cc1` [Example 9, 3-(4-Fluoro-phenyl)-5-[2-(3-fluoro-phenyl)-2H-pyrazol-3-yl]-benzo[c]isoxazole], for which the melting point came out at 175 °C. This compound yielded an EC (150% of control) in series [1] of 2.8 µM.

With `Fc1ccc(-c2onc3ccc(-c4ccnn4-c4ccccc4F)cc23)cc1` [Example 1, 3-(4-Fluoro-phenyl)-5-[2-(2-fluoro-phenyl)-2H-pyrazol-3-yl]-benzo[c]isoxazole], the melting point was 171 °C. The EC (150% of control) in series [1] was 0.12 µM.

Turning to `COc1ccc(-c2onc3ccc(-c4ccnn4-c4ccccc4F)cc23)cc1` [Example 6, 5-[2-(2-Fluoro-phenyl)-2H-pyrazol-3-yl]-3-(4-methoxy-phenyl)-benzo[c]isoxazole], the melting point is 134 °C. The EC (150% of control) in series [1] was 0.073 µM.

`Cc1ccc(-c2onc3ccc(-c4ccnn4-c4ccccc4F)cc23)cc1` [Example 3, 5-[2-(2-Fluoro-phenyl)-2H-pyrazol-3-yl]-3-p-tolyl-benzo[c]isoxazole] displayed a melting point of 173 °C. In addition, in series [1], the EC (150% of control) was determined as 0.12 µM.

`Fc1ccc(-n2nccc2-c2ccc3noc(-c4ccc(Cl)cc4)c3c2)cc1` [Example 12, 3-(4-Chloro-phenyl)-5-[2-(4-fluoro-phenyl)-2H-pyrazol-3-yl]-benzo[c]isoxazole] gave a melting point of 188 °C. This compound also came in with an EC (150% of control) in series [1] of 0.26 µM.

`COc1ccc(-c2onc3ccc(-c4ccnn4-c4ccc(F)cc4F)cc23)cc1` [Example 33, 5-[2-(2,4-Difluoro-phenyl)-2H-pyrazol-3-yl]-3-(4-methoxy-phenyl)-benzo[c]isoxazole] showed a melting point of 165 °C. The EC (150% of control) in series [1] is 0.068 µM.

Compound `Fc1ccc(-n2nccc2-c2ccc3noc(-c4cccs4)c3c2)cc1` [Example 44, 5-[2-(4-Fluoro-phenyl)-2H-pyrazol-3-yl]-3-thiophen-2-yl-benzo[c]isoxazole] showed a melting point of 154 °C. The EC (150% of control) in series [1] was 0.17 µM.

For the compound `COc1ccc(-n2nccc2-c2ccc3noc(-c4cccc(F)c4)c3c2)cc1` [Example 21, 3-(3-Fluoro-phenyl)-5-[2-(4-methoxy-phenyl)-2H-pyrazol-3-yl]-benzo[c]isoxazole], the melting point came out at 203 °C. This compound also registered an EC (150% of control) in series [1] of 0.51 µM.

For `Fc1ccc(-c2onc3ccc(-c4ccnn4-c4ccc(F)cc4)cc23)cc1` [Example 8, 3-(4-Fluoro-phenyl)-5-[2-(4-fluoro-phenyl)-2H-pyrazol-3-yl]-benzo[c]isoxazole], the melting point was determined as 159 °C. The compound further returned an EC (150% of control) in series [1] of 0.25 µM.

`Fc1cccc(-c2onc3ccc(-c4ccnn4-c4ccc(Cl)cc4)cc23)c1` [Example 26, 5-[2-(4-Chloro-phenyl)-2H-pyrazol-3-yl]-3-(3-fluoro-phenyl)-benzo[c]isoxazole] gave a melting point of 184 °C. Further, the EC (150% of control) in series [1] turned out to be 1.3 µM.

The compound `Fc1ccc(-c2onc3ccc(-c4ccnn4-c4ccc(F)cc4F)cc23)cc1` [Example 28, 5-[2-(2,4-Difluoro-phenyl)-2H-pyrazol-3-yl]-3-(4-fluoro-phenyl)-benzo[c]isoxazole] came in with a melting point of 149 °C. In addition, the EC (150% of control) in series [1] came out at 0.07 µM.

`Fc1ccccc1-n1nccc1-c1ccc2noc(-c3ccc(Cl)cc3)c2c1` [Example 5, 3-(4-Chloro-phenyl)-5-[2-(2-fluoro-phenyl)-2H-pyrazol-3-yl]-benzo[c]isoxazole]: the melting point was found to be 191 °C. For the same compound, the EC (150% of control) in series [1] stood at 0.033 µM.

Turning to `COc1ccc(-c2onc3ccc(-c4ccnn4-c4ccc(F)cc4F)cc23)cc1F` [Example 40, 5-[2-(2,4-Difluoro-phenyl)-2H-pyrazol-3-yl]-3-(3-fluoro-4-methoxy-phenyl)-benzo[c]isoxazole], the melting point is 183 °C. The compound also displayed an EC (150% of control) in series [1] of 0.23 µM.

For `COc1ccc(-c2onc3ccc(-c4ccnn4-c4ccccc4F)cc23)cc1F` [Example 36, 3-(3-Fluoro-4-methoxy-phenyl)-5-[2-(2-fluoro-phenyl)-2H-pyrazol-3-yl]-benzo[c]isoxazole], the melting point was found to be 168 °C. The compound further came in with an EC (150% of control) in series [1] of 0.16 µM.

`Cc1ccc(-c2onc3ccc(-c4ccnn4-c4ccccc4Cl)cc23)cc1` [Example 43, 5-[2-(2-Chloro-phenyl)-2H-pyrazol-3-yl]-3-p-tolyl-benzo[c]isoxazole] returned a melting point of 176 °C. In series [1], this compound had an EC (150% of control) of 0.15 µM.

`Cc1ccc(-n2nccc2-c2ccc3noc(-c4ccc(F)cc4)c3c2)cc1` [Example 14, 3-(4-Fluoro-phenyl)-5-(2-p-tolyl-2H-pyrazol-3-yl)-benzo[c]isoxazole] yielded a melting point of 173 °C. The compound further displayed an EC (150% of control) in series [1] of 0.091 µM.

Compound `Cc1ccc(-c2onc3ccc(-c4ccnn4-c4ccc(C)cc4)cc23)cc1` [Example 16, 3-p-Tolyl-5-(2-p-tolyl-2H-pyrazol-3-yl)-benzo[c]isoxazole] gave a melting point of 190 °C. In series [1], this compound displayed an EC (150% of control) of 0.055 µM.

In turn, `COc1ccc(-c2onc3ccc(-c4ccnn4-c4ccc(F)cc4)cc23)cc1F` [Example 37, 3-(3-Fluoro-4-methoxy-phenyl)-5-[2-(4-fluoro-phenyl)-2H-pyrazol-3-yl]-benzo[c]isoxazole] displayed a melting point of 162 °C. This compound also returned an EC (150% of control) in series [1] of 1.1 µM.

The compound `c1ccc(-c2onc3ccc(-c4ccnn4-c4ccccc4)cc23)cc1` [Example 34, 3-Phenyl-5-(2-phenyl-2H-pyrazol-3-yl)-benzo[c]isoxazole] gave a melting point of 163 °C. The EC (150% of control) in series [1] was determined as 0.13 µM.

The compound `COc1ccc(-n2nccc2-c2ccc3noc(-c4ccc(F)cc4)c3c2)cc1` [Example 20, 3-(4-Fluoro-phenyl)-5-[2-(4-methoxy-phenyl)-2H-pyrazol-3-yl]-benzo[c]isoxazole] displayed a melting point of 179 °C. In series [1], this compound yielded an EC (150% of control) of 0.36 µM.

In turn, `Fc1ccccc1-n1nccc1-c1ccc2noc(-c3ccc(C(F)(F)F)cc3)c2c1` [Example 4, 5-[2-(2-Fluoro-phenyl)-2H-pyrazol-3-yl]-3-(4-trifluoromethyl-phenyl)-benzo[c]isoxazole] gave a melting point of 156 °C. The EC (150% of control) in series [1] was 0.92 µM.

Compound `COc1ccc(-n2nccc2-c2ccc3noc(-c4ccc(C)cc4)c3c2)cc1` [Example 22, 5-[2-(4-Methoxy-phenyl)-2H-pyrazol-3-yl]-3-p-tolyl-benzo[c]isoxazole] showed a melting point of 159 °C. In series [1], this compound had an EC (150% of control) of 0.18 µM.

Consider `Fc1cccc(-c2onc3ccc(-c4ccnn4-c4ccc(F)cc4F)cc23)c1` [Example 29, 5-[2-(2,4-Difluoro-phenyl)-2H-pyrazol-3-yl]-3-(3-fluoro-phenyl)-benzo[c]isoxazole], for which the melting point worked out at 165 °C. The EC (150% of control) in series [1] came to 0.25 µM.

`Clc1ccc(-c2onc3ccc(-c4ccnn4-c4ccc(Cl)cc4)cc23)cc1` [Example 27, 3-(4-Chloro-phenyl)-5-[2-(4-chloro-phenyl)-2H-pyrazol-3-yl]-benzo[c]isoxazole] gave a melting point of 222 °C. Also, in series [1], the EC (150% of control) is 0.46 µM.
